# Test results published in patent publication US8592621B2, “Precursor compounds of sweet taste receptor antagonists for the prevention or treatment of disease” (Symrise AG, priority 2009, dated 2013).
# Legend:
# [1] = test system: sweet taste impression of sweet tasting substances; experiment: Influence on the sensorial quality of sweet substances (expert panel rating of sweet taste impression); format: in vivo; conditions: for Sweet taste impression (1-10) Sample (B): scale 1 [not sweet] to 10 [extremely sweet]; for Change in sweet taste impression [%]: sample B vs sample A
# From the text: In order to quantify the influence of inventive compounds of formula (I) on the sensorial characteristics of various sweet tasting substances, in each case a sample (A) (sweet tasting substance) and a sample (B) (sweet tasting substance+compound of formula (I) or lactisole (as standard)) were sensorially assessed by a group of experts and rated according to their sweet taste impression on a scale of 1 [not sweet] to 10 [extremely sweet]. Then in each case from the average values of the assessments of samples (A) and (B) the change (in %) in the sweet taste impression was calculated.
# [2] = target: T1, T1R2/T1R3 receptors (Homo sapiens, UniProt Q7RTX0+Q8TE23); experiment: Calcium mobilization (FLIPR) in HEK293TREX cells expressing human TAS1R2/TAS1R3; format: cell-based; conditions: in the presence of naringin dihydrochalcone; FIG. 3
# T1 construct: expressed in transfected cells; TAS1R2 from pCDNA5-FRT, TAS1R3 from pCDNA3-TO (tetracycline-induced), G15-Gi3 from pIRESpuro3
# T1 sequence (Q8TE23 20-839): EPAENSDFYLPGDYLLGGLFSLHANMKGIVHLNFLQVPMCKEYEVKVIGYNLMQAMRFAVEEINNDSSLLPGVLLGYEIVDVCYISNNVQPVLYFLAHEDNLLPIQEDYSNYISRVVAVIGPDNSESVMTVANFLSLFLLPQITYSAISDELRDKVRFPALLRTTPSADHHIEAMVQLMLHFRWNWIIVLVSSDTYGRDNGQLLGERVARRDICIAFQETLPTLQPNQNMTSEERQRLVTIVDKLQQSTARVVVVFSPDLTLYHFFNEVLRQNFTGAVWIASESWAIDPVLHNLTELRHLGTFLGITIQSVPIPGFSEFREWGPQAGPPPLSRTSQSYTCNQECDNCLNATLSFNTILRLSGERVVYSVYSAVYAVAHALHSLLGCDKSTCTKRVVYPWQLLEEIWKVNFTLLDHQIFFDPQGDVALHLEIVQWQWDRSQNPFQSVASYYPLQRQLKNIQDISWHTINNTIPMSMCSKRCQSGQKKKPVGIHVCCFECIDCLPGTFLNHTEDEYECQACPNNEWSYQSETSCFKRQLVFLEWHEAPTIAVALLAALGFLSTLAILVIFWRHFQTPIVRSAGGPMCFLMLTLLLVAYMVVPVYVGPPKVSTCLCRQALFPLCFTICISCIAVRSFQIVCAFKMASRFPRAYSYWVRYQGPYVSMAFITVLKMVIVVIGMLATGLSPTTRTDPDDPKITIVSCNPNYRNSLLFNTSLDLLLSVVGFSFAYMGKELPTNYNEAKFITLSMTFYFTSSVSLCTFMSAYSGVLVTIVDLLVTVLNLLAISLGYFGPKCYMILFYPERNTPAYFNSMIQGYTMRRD
# T1 sequence (Q7RTX0 21-852): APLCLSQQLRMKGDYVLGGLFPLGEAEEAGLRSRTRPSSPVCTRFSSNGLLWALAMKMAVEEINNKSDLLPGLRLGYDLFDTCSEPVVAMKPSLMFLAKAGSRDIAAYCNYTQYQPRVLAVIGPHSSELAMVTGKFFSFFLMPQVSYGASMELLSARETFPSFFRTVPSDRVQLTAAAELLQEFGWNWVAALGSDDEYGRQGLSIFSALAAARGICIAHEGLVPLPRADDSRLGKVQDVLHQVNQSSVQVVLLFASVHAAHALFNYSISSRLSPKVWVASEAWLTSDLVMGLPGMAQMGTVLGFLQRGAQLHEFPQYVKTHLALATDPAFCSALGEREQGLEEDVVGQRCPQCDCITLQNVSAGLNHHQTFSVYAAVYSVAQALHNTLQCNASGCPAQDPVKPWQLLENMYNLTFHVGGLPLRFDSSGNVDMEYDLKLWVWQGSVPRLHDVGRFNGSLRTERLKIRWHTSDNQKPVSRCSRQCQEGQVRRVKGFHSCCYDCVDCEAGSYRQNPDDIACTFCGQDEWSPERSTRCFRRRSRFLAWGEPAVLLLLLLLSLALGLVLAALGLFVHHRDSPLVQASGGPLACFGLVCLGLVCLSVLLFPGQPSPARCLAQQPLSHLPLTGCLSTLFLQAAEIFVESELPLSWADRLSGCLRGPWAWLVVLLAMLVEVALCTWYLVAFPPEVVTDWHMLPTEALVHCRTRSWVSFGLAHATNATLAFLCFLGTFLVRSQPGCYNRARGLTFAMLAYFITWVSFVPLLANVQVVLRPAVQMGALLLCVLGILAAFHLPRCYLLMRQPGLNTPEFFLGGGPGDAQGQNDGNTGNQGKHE
# [3] = target: T1, T1R2/T1R3 receptors; experiment: Activating or inhibiting effect on T1R2/T1R3 receptors according to concentration (same process as application example 3); format: cell-based; conditions: FIG. 4
# From the text: A stable cell line (HEK293TREX) extracted from human embryonic renal cells was manufactured with the help of the plasmid pIRESpuro3, coding for the G protein chimeras G15-Gi3. A further plasmid (pCDNA5-FRT), coding for the human TAS1R2 sequence, was also used. In this way it was possible to integrate the gene in a defined chromosomal region. The human TAS1R3 subunit of the human sweet taste receptor was cloned in pCDNA3-TO. This allowed the induction of the target gene using tetracycline. The stable, transfixed cell line was cultivated in high glucose content DMEM without tetracycline. For the measurements the cells were sown and cultivated (37° C., 5% CO2) in polylysine-coated 96-well titrimetric places (black with transparent bases) until they achieved an 80% confluence. […] The calcium mobilization by receptor stimulation by the test substances was measured in an automated fluorometer (fluorometric imaging plate reader FLIPR, Molecular Devices, Sunnyvale, Calif.). The test substances were measured in a concentration of 1 mmol/l or 0.1 mmol/l in C1 solution. All data were determined in two independent experiments, which were each repeated three times. The calcium signals obtained were corrected for the proportion of the mock cells and (using the formula ΔF/F=(F−F0)/F0) normalized on the starting intensity of the fluorescence prior to addition of the test substances (F0).
# [4] = test system: sweet taste intensity (in the oral cavity); experiment: Taste tests by a sensory panel (sweet taste intensity in the oral cavity); format: in vivo; conditions: tasting by sensory panel
# From the text: From this it can be concluded that during the tasting of the compounds of formulas (1) to (4) in the oral cavity no lactisole was released.
# [5] = Sucrose 5% + test substance 10 mg/l
# [6] = Sucrose 5%, test substance 10 mg/l
smiles,measurement,setting,value
"CCCCCCOC(=O)C(C)Oc1ccc(OC)cc1 (stereo not drawn) [Compound of formula (1), 2-(4-methoxyphenoxy)-propanoic acid hexyl ester]",Sweet taste impression (1-10) Sample (B),[1]; Sucrose 5% + test substance 14 mg/l,5.0 ± 1
same,Change in sweet taste impression [%],"[1]; Sucrose 5%, test substance 14 mg/l",−10%
same,Antagonistic effect (inhibition) on the sweet taste receptor,[2],do not themselves demonstrate any antagonistic effect
"COc1ccc(OC(C)C(=O)OCC(COC(=O)C(C)Oc2ccc(OC)cc2)OC(=O)C(C)Oc2ccc(OC)cc2)cc1 (stereo not drawn) [Compound of formula (2), 2-(4-methoxyphenoxy)propanoic acid-2,3-bis-[2-(4-methoxyphenoxy)-propionyloxy]-propyl ester]",Sweet taste impression (1-10) Sample (B),[1]; Naringin dihydrochalcone 50 mg/l + test substance 10 mg/l,5.6 ± 2.1
same,Change in sweet taste impression [%],"[1]; Naringin dihydrochalcone 50 mg/l, test substance 10 mg/l",9%
same,Sweet taste impression (1-10) Sample (B),[1]; [5],5.6 ± 1.5
same,Change in sweet taste impression [%],[1]; [6],3%
same,Antagonistic effect (inhibition) on the sweet taste receptor,[2],do not themselves demonstrate any antagonistic effect
same,Antagonistic effect on the sweet taste receptor,[3]; in the presence of aspartame or sucrose,does not demonstrate any antagonistic effect
same,Dose-effect curve for aspartame or saccharose,[3]; in the presence of the compound,not altered
"CCCCOC(=O)C(C)Oc1ccc(OC)cc1 (stereo not drawn) [Compound of formula (4), 2-(4-methoxyphenoxy)propanoic acid butyl ester]",Sweet taste impression (1-10) Sample (B),[1]; Sucrose 5% + test substance 16 mg/l,5.6 ± 1.5
same,Change in sweet taste impression [%],"[1]; Sucrose 5%, test substance 16 mg/l",−5%
"COc1ccc(OC(C)C(=O)O)cc1 (stereo not drawn) [Lactisole, 2-(4-methoxyphenoxy)propanoic acid, reference compound]",Sweet taste impression (1-10) Sample (B),[1]; [5],4.2 ± 1.4
same,Change in sweet taste impression [%],[1]; [6],−27%
same,Influence on the sweet taste intensity (in the oral cavity),[4],clear reduction in the sweet taste intensity
